Legend:
Pancreas [1] = assay: Biodistribution in Wistar rat pancreas at 20 MBq, iv after 60 mins; assay type: ADME, organism-based; settings: in vivo, 1 h
Rattus norvegicus [2] = assay: Biodistribution in corticosterone pretreated Wistar rat testis at 20 MBq, iv after 5 mins; assay type: ADME, organism-based; settings: in vivo
Cerebellum [3] = assay: Biodistribution in Wistar rat cerebellum at 20 MBq, iv after 5 mins; assay type: ADME, organism-based; settings: in vivo
Hippocampus [4] = assay: Biodistribution in corticosterone pretreated Wistar rat hippocampus at 20 MBq, iv after 5 mins; assay type: ADME, organism-based; settings: in vivo
Rattus norvegicus [5] = assay: Biodistribution in Wistar rat rest of brain at 20 MBq, iv after 60 mins; assay type: ADME, organism-based; settings: in vivo, 1 h
Lung = assay: Biodistribution in corticosterone pretreated Wistar rat lung at 20 MBq, iv after 5 mins; assay type: ADME, organism-based; settings: in vivo
Hippocampus [6] = assay: Biodistribution in Wistar rat hippocampus at 20 MBq, iv after 60 mins; assay type: ADME, organism-based; settings: in vivo, 1 h
Rattus norvegicus [7] = assay: Biodistribution in corticosterone pretreated Wistar rat testis at 20 MBq, iv after 60 mins; assay type: ADME, organism-based; settings: in vivo, 1 h
Heart [8] = assay: Biodistribution in Wistar rat heart at 20 MBq, iv after 5 mins; assay type: ADME, organism-based; settings: in vivo
Muscle tissue [9] = assay: Biodistribution in corticosterone pretreated Wistar rat muscle at 20 MBq, iv after 5 mins; assay type: ADME, organism-based; settings: in vivo
Cortex [10] = assay: Biodistribution in Wistar rat cortex at 20 MBq, iv after 5 mins; assay type: ADME, organism-based; settings: in vivo
Muscle tissue [11] = assay: Biodistribution in corticosterone pretreated Wistar rat muscle at 20 MBq, iv after 60 mins; assay type: ADME, organism-based; settings: in vivo, 1 h
Liver [12] = assay: Biodistribution in Wistar rat liver at 20 MBq, iv after 5 mins; assay type: ADME, organism-based; settings: in vivo
Rattus norvegicus [13] = assay: Biodistribution in Wistar rat fat at 20 MBq, iv after 60 mins; assay type: ADME, organism-based, Adipose tissue; settings: in vivo, 1 h
Pituitary gland [14] = assay: Biodistribution in corticosterone pretreated Wistar rat pituitary at 20 MBq, iv after 5 mins; assay type: ADME, organism-based; settings: in vivo
Harderian gland = assay: Biodistribution in corticosterone pretreated Wistar rat harderian gland at 20 MBq, iv after 5 mins; assay type: ADME, organism-based; settings: in vivo
Femur [15] = assay: Biodistribution in Wistar rat femur at 20 MBq, iv after 5 mins; assay type: ADME, organism-based; settings: in vivo
Thymus = assay: Biodistribution in Wistar rat thymus at 20 MBq, iv after 5 mins; assay type: ADME, organism-based; settings: in vivo
Liver [16] = assay: Biodistribution in corticosterone pretreated Wistar rat liver at 20 MBq, iv after 5 mins; assay type: ADME, organism-based; settings: in vivo
Spleen [17] = assay: Biodistribution in corticosterone pretreated Wistar rat spleen at 20 MBq, iv after 60 mins; assay type: ADME, organism-based; settings: in vivo, 1 h
Cortex [18] = assay: Biodistribution in corticosterone pretreated Wistar rat cortex at 20 MBq, iv after 5 mins; assay type: ADME, organism-based; settings: in vivo
Cerebellum [19] = assay: Biodistribution in corticosterone pretreated Wistar rat cerebellum at 20 MBq, iv after 5 mins; assay type: ADME, organism-based; settings: in vivo
Kidney [20] = assay: Biodistribution in corticosterone pretreated Wistar rat kidney at 20 MBq, iv after 60 mins; assay type: ADME, organism-based; settings: in vivo, 1 h
Rattus norvegicus [21] = assay: Biodistribution in Wistar rat testis at 20 MBq, iv after 5 mins; assay type: ADME, organism-based; settings: in vivo
Heart [22] = assay: Biodistribution in Wistar rat heart at 20 MBq, iv after 60 mins; assay type: ADME, organism-based; settings: in vivo, 1 h
Liver [23] = assay: Biodistribution in corticosterone pretreated Wistar rat liver at 20 MBq, iv after 60 mins; assay type: ADME, organism-based; settings: in vivo, 1 h
Pancreas [24] = assay: Biodistribution in Wistar rat pancreas at 20 MBq, iv after 5 mins; assay type: ADME, organism-based; settings: in vivo
Liver [25] = assay: Biodistribution in Wistar rat liver at 20 MBq, iv after 60 mins; assay type: ADME, organism-based; settings: in vivo, 1 h
Spleen [26] = assay: Biodistribution in Wistar rat spleen at 20 MBq, iv after 5 mins; assay type: ADME, organism-based; settings: in vivo
Muscle tissue [27] = assay: Biodistribution in Wistar rat muscle at 20 MBq, iv after 5 mins; assay type: ADME, organism-based; settings: in vivo
Femur [28] = assay: Biodistribution in Wistar rat femur at 20 MBq, iv after 60 mins; assay type: ADME, organism-based; settings: in vivo, 1 h
Spleen [29] = assay: Biodistribution in Wistar rat spleen at 20 MBq, iv after 60 mins; assay type: ADME, organism-based; settings: in vivo, 1 h
Heart [30] = assay: Biodistribution in corticosterone pretreated Wistar rat heart at 20 MBq, iv after 5 mins; assay type: ADME, organism-based; settings: in vivo
Rattus norvegicus [31] = assay: Biodistribution in Wistar rat brown fat at 20 MBq, iv after 60 mins; assay type: ADME, organism-based, Brown adipose tissue; settings: in vivo, 1 h
Femur [32] = assay: Biodistribution in corticosterone pretreated Wistar rat femur at 20 MBq, iv after 60 mins; assay type: ADME, organism-based; settings: in vivo, 1 h
Rattus norvegicus [33] = assay: Biodistribution in corticosterone pretreated Wistar rat fat at 20 MBq, iv after 60 mins; assay type: ADME, organism-based, Adipose tissue; settings: in vivo, 1 h
Pancreas [34] = assay: Biodistribution in corticosterone pretreated Wistar rat pancreas at 20 MBq, iv after 5 mins; assay type: ADME, organism-based; settings: in vivo
Rattus norvegicus [35] = assay: Biodistribution in Wistar rat testis at 20 MBq, iv after 60 mins; assay type: ADME, organism-based; settings: in vivo, 1 h
Kidney [36] = assay: Biodistribution in corticosterone pretreated Wistar rat kidney at 20 MBq, iv after 5 mins; assay type: ADME, organism-based; settings: in vivo
Pituitary gland [37] = assay: Biodistribution in Wistar rat pituitary at 20 MBq, iv after 60 mins; assay type: ADME, organism-based; settings: in vivo, 1 h

Drug uptake (Pancreas [1]): 1.99 % ID/g
Drug uptake (Rattus norvegicus [2]): 0.43 % ID/g
Drug uptake (Cerebellum [3]): 1.39 % ID/g
Drug uptake (Hippocampus [4]): 1.35 % ID/g
Drug uptake (Rattus norvegicus [5]): 0.56 % ID/g
Drug uptake (Lung): 1.44 % ID/g
Drug uptake (Hippocampus [6]): 0.61 % ID/g
Drug uptake (Rattus norvegicus [7]): 0.5 % ID/g
Drug uptake (Heart [8]): 1.7 % ID/g
Drug uptake (Muscle tissue [9]): 0.9 % ID/g
Drug uptake (Cortex [10]): 1.67 % ID/g
Drug uptake (Muscle tissue [11]): 0.52 % ID/g
Drug uptake (Liver [12]): 2.65 % ID/g
Drug uptake (Rattus norvegicus [13]): 3.11 % ID/g
Drug uptake (Pituitary gland [14]): 2.45 % ID/g
Drug uptake (Harderian gland): 1.65 % ID/g
Drug uptake (Femur [15]): 0.9 % ID/g
Drug uptake (Thymus): 1.57 % ID/g
Drug uptake (Liver [16]): 3.04 % ID/g
Drug uptake (Spleen [17]): 0.91 % ID/g
Drug uptake (Cortex [18]): 1.55 % ID/g
Drug uptake (Cerebellum [19]): 1.46 % ID/g
Drug uptake (Kidney [20]): 1.13 % ID/g
Drug uptake (Rattus norvegicus [21]): 0.47 % ID/g
Drug uptake (Heart [22]): 0.75 % ID/g
Drug uptake (Liver [23]): 3.84 % ID/g
Drug uptake (Pancreas [24]): 2.79 % ID/g
Drug uptake (Liver [25]): 2.54 % ID/g
Drug uptake (Spleen [26]): 0.97 % ID/g
Drug uptake (Muscle tissue [27]): 0.94 % ID/g
Drug uptake (Femur [28]): 0.88 % ID/g
Drug uptake (Spleen [29]): 1.06 % ID/g
Drug uptake (Heart [30]): 1.91 % ID/g
Drug uptake (Rattus norvegicus [31]): 8.54 % ID/g
Drug uptake (Femur [32]): 0.7 % ID/g
Drug uptake (Rattus norvegicus [33]): 2.43 % ID/g
Drug uptake (Pancreas [34]): 2.81 % ID/g
Drug uptake (Rattus norvegicus [35]): 0.52 % ID/g
Drug uptake (Kidney [36]): 2.06 % ID/g
Drug uptake (Pituitary gland [37]): 1.77 % ID/g
Structure (SMILES): C=CCC1Oc2cccc(O[11CH3])c2-c2ccc3c(c21)C(C)=CC(C)(C)N3 (stereo not given)
